Where a name gives a salt, the structure may show the parent alone.
Legend:
drug metabolism enzymes = assay: inhibition of drug metabolism enzymes; assay type: in vitro ADME; conditions: except CYP2C8 and CYP2C19
[1] = tested on: P450 enzymes in rat liver; assay: P450 enzyme induction; assay type: in vitro ADME
[2] = tested on: ERK1/2 phosphorylation in A375 xenografts; assay: PD study, p-ERK1/2 in tumor tissue (AlphaScreen SureFire); assay type: in vivo; conditions: A375 xenografts in mice, oral administration
Experimental: (§1) Human cancer cells were inoculated subcutaneously in the right axilla region of BALB/C nude mice to generate tumor xenografts. On the day of implantation, the cell culture medium was replaced with fresh medium. Three hours later, the media was removed and the cells were collected and re-suspended in cold (4° C.) PBS prior to inoculation. The right axilla region of each mouse was cleaned with 70% ethanol prior to cell inoculation. Each animal was injected subcutaneously with desired cells in 200 μl of cell suspension in the right front flank via a 26-gauge needle. After implantation tumor volumes were measured twice weekly in two dimensions using a calliper. Tumor volume was calculated using the formula: V=0.5×(a×b^2) where a and b are the long and short diameters of the tumor, respectively.
(§2) For PD study, when the average tumor size reaches 140-900 mm^3, animals were assigned into desired number of groups with 4 mice per group using a stratified randomization procedure. The groups consisted of a control group (no drug treatment), and different dose levels of Crystalline Form A* of Compound 1 Sesqui-Maleate treatment groups (ranged from 1-20 mg/kg). All doses were based on free-base weight. Drugs were administered by oral gavage once (qd) or twice (bid) daily. […] Body weight was assessed immediately before dosing and the volume dosed was adjusted accordingly. […]

[3] = tested on: BRAF V600E and KRAS cancers; assay: Phase I clinical study; assay type: in vivo, human; conditions: capsules, 5-50 mg single doses, 25 subjects
[4] = tested on: p-ERK in Calu-6 K-RAS mutant non-small cell lung adenocarcinoma xenograft models; assay: PD study, p-ERK in tumor tissue, combination; assay type: in vivo, mice; conditions: Calu-6 xenograft, with MEK inhibitor AZD6244
Experimental: as §1, §2

BTK = molecular target: T1, BTK (Homo sapiens, UniProt Q06187); assay: HTRF KinEASE-TK kinase assay; assay type: biochemical
T1 construct: purchased Carna Biosciences
T1 sequence (Q06187 whole entry): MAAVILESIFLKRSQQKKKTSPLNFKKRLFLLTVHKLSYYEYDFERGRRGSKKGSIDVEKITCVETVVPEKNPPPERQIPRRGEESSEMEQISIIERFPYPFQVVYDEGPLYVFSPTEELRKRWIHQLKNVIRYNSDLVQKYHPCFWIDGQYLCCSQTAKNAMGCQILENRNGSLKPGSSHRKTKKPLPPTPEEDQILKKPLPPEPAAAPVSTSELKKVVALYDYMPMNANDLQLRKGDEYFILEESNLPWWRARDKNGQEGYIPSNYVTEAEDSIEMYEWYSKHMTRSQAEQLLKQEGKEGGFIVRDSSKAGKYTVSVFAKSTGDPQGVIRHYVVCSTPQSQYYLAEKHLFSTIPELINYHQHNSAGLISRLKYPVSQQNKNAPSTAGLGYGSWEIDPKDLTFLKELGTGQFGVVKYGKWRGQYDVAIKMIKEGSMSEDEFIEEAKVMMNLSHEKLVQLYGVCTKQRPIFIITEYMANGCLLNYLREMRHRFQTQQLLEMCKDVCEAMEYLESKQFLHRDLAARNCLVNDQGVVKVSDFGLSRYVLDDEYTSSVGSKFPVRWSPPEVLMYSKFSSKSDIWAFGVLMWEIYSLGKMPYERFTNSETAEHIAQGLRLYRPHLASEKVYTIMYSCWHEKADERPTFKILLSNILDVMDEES
Experimental: (§3) Crystalline Form A* of Compound 1 Sesqui-Maleate was tested against recombinant EGFR/EPHA2/BTK (from Carna Biosciences), ITK/TEC/SRC/PDGFR-beta/TXK/FLT3/VEGFR2/RET (from Life Technologies), and HER2 (aa676-1255, recombinant protein purified from insect expression system) in HTRF KinEASE-TK assay from Cisbio Bioassays according to the manufacturer's instructions. The assay was carried out in a reaction mixture containing kinases, ATP at KM concentration, biotinylated peptide substrate (61TK0BLC, Cisbio Bioassays) and Crystalline Form A* of Compound 1 Sesqui-Maleate. The kinase was incubated with Crystalline Form A* of Compound 1 Sesqui-Maleate at RT for 1 hr or 2 hr (for EGFR) and the reaction was initiated by the addition of ATP and substrate. After reaction, stop/detection solution was added according to the manufacture's instruction. The stop/detection solution contained Eu+ cryptate conjugated antiphosphotyrosine antibody (61T66kLB, CisBio Bioassays) and Streptavidin-XL665 (610SAXLB, CisBio Bioassays) in buffer containing 25 mM Tris pH7.4, 400 mM KF, 50 mM EDTA, 0.01% BSA, 0.01% Triton X-100. The TR-FRET signals (ratio of fluorescence emission at 665 nm over emission at 620 nm with excitation at 337 nm wavelength) were recorded on a PHERAstar FS plate reader (BMG Labtech) after 1 hr incubation. Phosphorylation of biotinylated peptide substrate led to the binding of both Eu+ cryptate conjugated antiphosphotyrosine antibody and streptaviding-XL665 to the biotinylated peptide. The close proximity of the donor (Eu+ cryptate) and acceptor (XL665) fluorophore led to a high degree of fluorescence resonance energy transfer from the donor fluorophore (at 620 nm) to the acceptor fluorophore (at 665 nm). The IC50 for Crystalline Form A* of Compound 1 Sesqui-Maleate was derived from fitting the dose-response % inhibition data to the four-parameter logistic model by Graphpad Prism software.

FLT3 = molecular target: T2, FLT3 (Homo sapiens, UniProt P36888); assay: HTRF KinEASE-TK kinase assay; assay type: biochemical
T2 construct: purchased Life Technologies
Experimental: as §3

RET = molecular target: T3, RET (Homo sapiens, UniProt P07949); assay: HTRF KinEASE-TK kinase assay; assay type: biochemical
T3 construct: purchased Life Technologies
T3 sequence (P07949 29-1114): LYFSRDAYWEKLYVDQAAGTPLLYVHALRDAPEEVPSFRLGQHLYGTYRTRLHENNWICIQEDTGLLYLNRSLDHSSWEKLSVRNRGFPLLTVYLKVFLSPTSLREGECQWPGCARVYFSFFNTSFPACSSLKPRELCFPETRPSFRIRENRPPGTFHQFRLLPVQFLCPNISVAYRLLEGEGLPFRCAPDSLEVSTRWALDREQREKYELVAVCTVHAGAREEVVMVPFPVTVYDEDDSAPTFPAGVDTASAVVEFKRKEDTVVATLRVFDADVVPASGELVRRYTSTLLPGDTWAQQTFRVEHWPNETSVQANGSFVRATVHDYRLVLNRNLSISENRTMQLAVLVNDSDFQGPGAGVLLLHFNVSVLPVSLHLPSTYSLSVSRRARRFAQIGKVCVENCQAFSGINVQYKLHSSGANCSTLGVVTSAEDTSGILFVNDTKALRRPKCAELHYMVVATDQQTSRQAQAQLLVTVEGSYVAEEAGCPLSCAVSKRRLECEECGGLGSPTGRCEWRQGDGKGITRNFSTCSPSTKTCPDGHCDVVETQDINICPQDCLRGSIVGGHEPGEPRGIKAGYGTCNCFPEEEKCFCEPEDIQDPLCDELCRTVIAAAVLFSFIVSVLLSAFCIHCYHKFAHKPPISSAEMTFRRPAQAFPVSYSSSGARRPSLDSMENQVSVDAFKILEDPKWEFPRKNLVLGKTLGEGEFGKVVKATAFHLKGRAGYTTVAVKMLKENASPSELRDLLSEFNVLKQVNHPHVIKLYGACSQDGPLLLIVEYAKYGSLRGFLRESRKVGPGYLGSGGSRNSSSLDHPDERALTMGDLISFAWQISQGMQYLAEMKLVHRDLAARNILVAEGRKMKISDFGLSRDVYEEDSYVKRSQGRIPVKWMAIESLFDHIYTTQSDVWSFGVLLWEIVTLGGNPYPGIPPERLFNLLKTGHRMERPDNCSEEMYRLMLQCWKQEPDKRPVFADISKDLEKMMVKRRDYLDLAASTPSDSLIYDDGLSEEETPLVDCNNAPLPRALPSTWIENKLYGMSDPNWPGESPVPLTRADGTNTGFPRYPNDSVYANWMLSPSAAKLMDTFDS
Experimental: as §3

TEC = molecular target: T4, TEC (Homo sapiens, UniProt P42680); assay: HTRF KinEASE-TK kinase assay; assay type: biochemical
T4 construct: purchased Life Technologies
Experimental: as §3

TXK = molecular target: T5, TXK (Homo sapiens, UniProt P42681); assay: HTRF KinEASE-TK kinase assay; assay type: biochemical
T5 construct: purchased Life Technologies
Experimental: as §3

EPHA2 = molecular target: T6, EPHA2 (Homo sapiens, UniProt P29317); assay: HTRF KinEASE-TK kinase assay; assay type: biochemical
T6 construct: purchased Carna Biosciences
T6 sequence (P29317 24-976): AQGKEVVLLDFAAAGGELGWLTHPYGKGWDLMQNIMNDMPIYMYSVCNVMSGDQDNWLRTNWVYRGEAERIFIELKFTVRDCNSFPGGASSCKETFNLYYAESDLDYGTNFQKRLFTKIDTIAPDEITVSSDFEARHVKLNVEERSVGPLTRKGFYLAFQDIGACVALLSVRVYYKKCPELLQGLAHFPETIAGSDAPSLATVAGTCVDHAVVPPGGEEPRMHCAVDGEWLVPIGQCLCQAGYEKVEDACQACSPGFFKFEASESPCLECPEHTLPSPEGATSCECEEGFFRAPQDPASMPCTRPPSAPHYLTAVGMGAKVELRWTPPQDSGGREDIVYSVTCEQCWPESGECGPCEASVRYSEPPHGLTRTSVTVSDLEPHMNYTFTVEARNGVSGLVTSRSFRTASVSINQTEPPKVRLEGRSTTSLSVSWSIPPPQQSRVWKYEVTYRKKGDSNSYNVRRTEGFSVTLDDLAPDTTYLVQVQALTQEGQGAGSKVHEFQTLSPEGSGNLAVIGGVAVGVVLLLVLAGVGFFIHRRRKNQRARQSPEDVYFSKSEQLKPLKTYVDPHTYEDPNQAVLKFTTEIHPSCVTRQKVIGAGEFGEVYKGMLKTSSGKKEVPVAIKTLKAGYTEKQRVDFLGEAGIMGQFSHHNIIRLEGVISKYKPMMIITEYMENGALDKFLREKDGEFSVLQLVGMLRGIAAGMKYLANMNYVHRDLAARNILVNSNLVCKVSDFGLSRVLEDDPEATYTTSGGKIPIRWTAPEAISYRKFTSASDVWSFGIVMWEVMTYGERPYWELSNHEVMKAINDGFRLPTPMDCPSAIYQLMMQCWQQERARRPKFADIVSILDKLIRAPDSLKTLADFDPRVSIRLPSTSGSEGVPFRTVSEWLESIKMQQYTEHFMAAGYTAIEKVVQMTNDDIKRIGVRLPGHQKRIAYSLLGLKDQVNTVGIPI
Experimental: as §3

ITK = molecular target: T7, ITK (Homo sapiens, UniProt Q08881); assay: HTRF KinEASE-TK kinase assay; assay type: biochemical
T7 construct: purchased Life Technologies
T7 sequence (Q08881 whole entry): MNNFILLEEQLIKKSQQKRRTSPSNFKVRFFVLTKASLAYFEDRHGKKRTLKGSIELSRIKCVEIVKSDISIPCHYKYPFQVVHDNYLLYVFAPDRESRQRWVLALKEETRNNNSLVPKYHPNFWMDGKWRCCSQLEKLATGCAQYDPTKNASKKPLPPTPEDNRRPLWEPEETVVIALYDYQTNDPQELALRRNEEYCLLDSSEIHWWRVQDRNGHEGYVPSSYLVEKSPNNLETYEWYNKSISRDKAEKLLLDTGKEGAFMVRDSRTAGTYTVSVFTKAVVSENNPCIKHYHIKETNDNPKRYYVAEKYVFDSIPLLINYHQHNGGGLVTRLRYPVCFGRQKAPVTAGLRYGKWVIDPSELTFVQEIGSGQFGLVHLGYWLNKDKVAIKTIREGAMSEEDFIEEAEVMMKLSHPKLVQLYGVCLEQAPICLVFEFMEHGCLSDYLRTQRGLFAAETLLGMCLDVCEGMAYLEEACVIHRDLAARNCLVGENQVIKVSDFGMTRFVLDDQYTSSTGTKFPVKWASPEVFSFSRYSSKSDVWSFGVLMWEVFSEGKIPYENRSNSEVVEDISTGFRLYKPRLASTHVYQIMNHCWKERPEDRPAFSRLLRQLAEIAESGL
Experimental: as §3

PDGFR-beta = molecular target: T8, PDGFR-beta (Homo sapiens, UniProt P09619); assay: HTRF KinEASE-TK kinase assay; assay type: biochemical
T8 construct: purchased Life Technologies
T8 sequence (P09619 33-1106): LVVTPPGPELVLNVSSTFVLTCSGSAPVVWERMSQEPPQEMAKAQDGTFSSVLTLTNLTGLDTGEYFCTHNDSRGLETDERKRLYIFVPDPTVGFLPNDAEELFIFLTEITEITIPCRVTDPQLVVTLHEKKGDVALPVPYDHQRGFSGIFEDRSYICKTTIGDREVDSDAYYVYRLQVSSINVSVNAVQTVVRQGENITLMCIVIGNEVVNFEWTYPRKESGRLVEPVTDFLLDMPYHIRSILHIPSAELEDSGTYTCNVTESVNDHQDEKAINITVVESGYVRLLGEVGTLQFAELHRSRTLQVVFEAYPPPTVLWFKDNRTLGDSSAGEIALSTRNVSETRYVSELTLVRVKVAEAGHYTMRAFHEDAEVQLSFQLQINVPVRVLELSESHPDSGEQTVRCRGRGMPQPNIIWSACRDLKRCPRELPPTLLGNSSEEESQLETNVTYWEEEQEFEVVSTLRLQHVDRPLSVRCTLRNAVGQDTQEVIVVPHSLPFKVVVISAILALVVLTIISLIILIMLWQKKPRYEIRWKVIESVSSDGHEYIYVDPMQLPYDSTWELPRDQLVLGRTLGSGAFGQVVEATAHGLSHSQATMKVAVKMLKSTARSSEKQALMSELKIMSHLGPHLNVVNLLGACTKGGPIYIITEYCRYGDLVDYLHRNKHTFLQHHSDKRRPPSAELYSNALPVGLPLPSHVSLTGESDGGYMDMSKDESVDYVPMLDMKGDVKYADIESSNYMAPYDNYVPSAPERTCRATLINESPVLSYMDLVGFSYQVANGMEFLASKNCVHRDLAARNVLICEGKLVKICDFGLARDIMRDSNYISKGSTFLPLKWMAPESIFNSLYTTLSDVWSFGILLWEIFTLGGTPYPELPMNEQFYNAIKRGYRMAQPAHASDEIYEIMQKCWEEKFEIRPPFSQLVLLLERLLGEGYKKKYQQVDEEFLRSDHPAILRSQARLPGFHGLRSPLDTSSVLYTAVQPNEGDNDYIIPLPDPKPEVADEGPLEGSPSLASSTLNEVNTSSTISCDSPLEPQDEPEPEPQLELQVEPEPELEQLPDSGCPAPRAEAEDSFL
Experimental: as §3

SRC = molecular target: T9, SRC (Homo sapiens, UniProt P12931); assay: HTRF KinEASE-TK kinase assay; assay type: biochemical
T9 construct: purchased Life Technologies
T9 sequence (P12931 whole entry): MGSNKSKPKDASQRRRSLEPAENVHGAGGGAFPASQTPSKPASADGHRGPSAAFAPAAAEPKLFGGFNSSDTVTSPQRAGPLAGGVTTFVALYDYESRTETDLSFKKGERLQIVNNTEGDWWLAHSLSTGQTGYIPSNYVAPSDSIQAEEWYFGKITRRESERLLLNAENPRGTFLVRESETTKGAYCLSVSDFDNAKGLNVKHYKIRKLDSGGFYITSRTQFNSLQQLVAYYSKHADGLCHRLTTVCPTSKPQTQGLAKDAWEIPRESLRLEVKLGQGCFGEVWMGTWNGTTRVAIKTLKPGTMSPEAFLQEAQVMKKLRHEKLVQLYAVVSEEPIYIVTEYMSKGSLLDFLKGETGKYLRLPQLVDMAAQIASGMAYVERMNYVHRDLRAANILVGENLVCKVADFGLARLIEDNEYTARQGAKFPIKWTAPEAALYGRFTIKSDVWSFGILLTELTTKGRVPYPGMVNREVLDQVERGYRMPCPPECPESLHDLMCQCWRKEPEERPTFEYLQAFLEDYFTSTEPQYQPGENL
Experimental: as §3

Structure (SMILES): O=C1CCc2c(Oc3ccc4c(c3)[C@@H]3[C@H](O4)[C@H]3c3nc4ccc(C(F)(F)F)cc4[nH]3)ccnc2N1 [5-(((1R,1aS,6bR)-1-(6-(trifluoromethyl)-1H-benzo[d]imidazol-2-yl)-1a,6b-dihydro-1H-cyclopropa[b]benzofuran-5-yl)oxy)-3,4-dihydro-1,8-naphthyridin-2(1H)-one sesqui-maleate salt]
- inhibitory activity on drug metabolism enzymes (drug metabolism enzymes): no inhibitory activity
- induction effect on P450 enzymes [1]: No significant induction effect
- inhibition of ERK1/2 phosphorylation in tumor [2]: time-dependent and dose-dependent inhibition
- clinical safety of single doses [3]: safe and well tolerated
- effect on inhibiting p-ERK in combination [4]: strong synergistic effect
- enzyme inhibition (BTK): no inhibition
- IC50 (BTK; ATP at KM): > 10000 nM
- enzyme inhibition (FLT3): potently inhibits
- IC50 (FLT3; ATP at KM): 25 nM
- enzyme inhibition (RET): potently inhibits
- IC50 (RET; ATP at KM): 18 nM
- enzyme inhibition (TEC): no inhibition
- IC50 (TEC; ATP at KM): > 10000 nM
- enzyme inhibition (TXK): weak inhibition
- IC50 (TXK; ATP at KM): 4800 nM
- enzyme inhibition (EPHA2): potently inhibits
- IC50 (EPHA2; ATP at KM): 61 nM
- enzyme inhibition (ITK): no inhibition
- IC50 (ITK; ATP at KM): > 10000 nM
- enzyme inhibition (PDGFR-beta): potently inhibits
- IC50 (PDGFR-beta; ATP at KM): 17 nM
- enzyme inhibition (SRC): weak inhibition
- IC50 (SRC; ATP at KM): 917 nM

Reference: patent US10351559B2, “Maleate salts of a B-RAF kinase inhibitor, crystalline forms, methods of preparation, and uses therefore” (BeiGene, Ltd., priority 2015, dated 2019)
